Activity calls are given as the source filed them. No cut-off for these calls is given here.
Key:
MCF7 [1] = assay: Growth inhibition of Homo sapiens (human) MCF7 cells at 30 ug/ml after 48 hr by MTT assay relative to control; type: functional; settings: MCF7, 48 h, read-out: GI
MCF7 [2] = assay: Growth inhibition of Homo sapiens (human) MCF7 cells at 15 ug/ml after 48 hr by MTT assay relative to control; type: functional; settings: for inhibition of growth at 15 µg/mL: MCF7, 48 h, read-out: GI
MCF7 [3] = assay: Growth inhibition of Homo sapiens (human) MCF7 cells at 60 ug/ml after 48 hr by MTT assay relative to control; type: functional; settings: MCF7, 48 h, read-out: GI
MCF7 [4] = assay: Growth inhibition of Homo sapiens (human) MCF7 cells at 7.5 ug/ml after 48 hr by MTT assay relative to control; type: functional; settings: for inhibition of growth at 7.5 µg/mL: MCF7, 48 h, read-out: GI
MCF7 [5] = assay: Growth inhibition of Homo sapiens (human) MCF7 cells after 48 hr by MTT assay; type: functional, cell-based
[6] = Homo sapiens, MCF7, 48 h, read-out: IC50

| IC50 (MCF7 [5]; [6]) [µM] | IC50 (MCF7 [5]; mcf7) | SMILES | inhibition of growth at 30 µg/mL (MCF7 [1]) [%] | inhibition of growth at 15 µg/mL (MCF7 [2]) [%] | inhibition of growth at 60 µg/mL (MCF7 [3]) [%] | inhibition of growth at 7.5 µg/mL (MCF7 [4]) [%] | growth inhibition (GI) (MCF7 [2]) | growth inhibition (GI) (MCF7 [4]) |
| --- | --- | --- | --- | --- | --- | --- | --- | --- |
| 29.8 |  | Cc1ccc2c(c1)CN(c1ccc3oc(-c4ccccc4)cc(=O)c3c1)CO2 | 56.9 | 31 | 79.5 | 16.5 |  |  |
| 61.9 |  | Cc1cc(C)c2c(c1)CN(c1ccc3c(=O)cc(-c4ccccc4)oc3c1)CO2 | 26.8 |  | 48.4 | 11.2 | inactive |  |
|  | Not Active | O=c1cc(-c2ccccc2)oc2ccc(N3COc4c(Br)cc(Br)cc4C3)cc12 | 16.1 | 13.6 | 34.5 | 6.54 |  |  |
|  | Not Active | O=c1cc(-c2ccccc2)oc2cc(N3COc4c(Br)cccc4C3)ccc12 | 7.89 | 5.64 | 19.5 | 2.21 |  |  |
| 17 |  | COc1cccc2c1OCN(c1ccc3oc(-c4ccccc4)cc(=O)c3c1)C2 | 67.8 | 54 | 91.9 | 32.5 |  |  |
| 8.01 |  | COc1cc2c(c(OC)c1)OCN(c1ccc3oc(-c4ccccc4)cc(=O)c3c1)C2 | 79 | 60 | 99.1 | 48.9 |  |  |
| 28.4 |  | O=c1cc(-c2ccccc2)oc2ccc(N3COc4c(cccc4[N+](=O)[O-])C3)cc12 | 61.9 | 55.9 | 72.9 | 8.2 |  |  |
|  | Not Active | O=c1cc(-c2ccccc2)oc2cc(N3COc4ccccc4C3)ccc12 | 12.7 | 3.89 | 19.3 | 2.65 |  |  |
| 14.3 |  | Cc1cccc2c1OCN(c1ccc3oc(-c4ccccc4)cc(=O)c3c1)C2 | 72.4 | 60.9 | 85.1 | 30.4 |  |  |
| 14.9 |  | Cc1cccc2c1OCN(c1ccc3c(=O)cc(-c4ccccc4)oc3c1)C2 | 57.8 | 54.9 | 66.6 | 43.9 |  |  |
| 12 |  | O=c1cc(-c2ccccc2)oc2ccc(N3COc4c(Cl)cc(Cl)cc4C3)cc12 | 74 | 61.3 | 80.3 | 32.8 |  |  |
|  | Not Active | O=c1cc(-c2ccccc2)oc2cc(N3COc4c(Br)cc(Br)cc4C3)ccc12 | 11.1 | 1.64 | 26.5 | 1.48 |  |  |
| 12.1 |  | COc1cc2c(c(OC)c1)OCN(c1ccc3c(=O)cc(-c4ccccc4)oc3c1)C2 | 75.9 | 62.9 | 88.9 | 45.8 |  |  |
|  | Not Active | O=c1cc(-c2ccccc2)oc2cc(N3COc4c(cccc4[N+](=O)[O-])C3)ccc12 | 5.65 | 1.96 | 15.7 |  |  | inactive |
| 19.6 |  | O=c1cc(-c2ccccc2)oc2ccc(N3COc4c(Br)cccc4C3)cc12 | 71.6 | 37.8 | 81.8 |  |  | inactive |
| 44.5 |  | O=c1cc(-c2ccccc2)oc2cc(N3COc4c(Cl)cc(Cl)cc4C3)ccc12 | 34.6 | 11.8 | 68.8 |  |  | inactive |
| 7.2 |  | COc1cccc2c1C(=O)c1c(O)c3c(c(O)c1C2=O)C[C@@](O)(C(=O)CO)C[C@@H]3O[C@H]1C[C@H](N)[C@H](O)[C@H](C)O1 [DOXORUBICIN] | 88.9 | 70.3 | 99.5 | 50.8 |  |  |
| 27.5 |  | O=c1cc(-c2ccccc2)oc2ccc(N3COc4ccccc4C3)cc12 | 68.5 | 34 | 92.7 | 8.7 |  |  |
